# Reference: PubChem BioAssay (NCI)
#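 Briefly, cells in 96-well plates were exposed to five compound concentrations for 48 h, and endpoints were estimated by linear interpolation. TGI: concentration producing complete growth inhibition.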
# Legend:
# Assay in all cases: NCI anticancer screen, dose series, 48 h
# T-47D breast = test system: T-47D breast
# NCI-H226 lung = test system: NCI-H226 lung
# EKVX NSCLC = test system: EKVX NSCLC
# HOP-92 NSCLC = test system: HOP-92 NSCLC
# NCI/ADR-RES ovarian = test system: NCI/ADR-RES ovarian
# HCT-15 colon = test system: HCT-15 colon
# OVCAR-5 ovarian = test system: OVCAR-5 ovarian
# MDA-MB-435 = test system: MDA-MB-435
# UACC-257 melanoma = test system: UACC-257 melanoma
# SW-620 colon = test system: SW-620 colon
# NCI-H23 lung = test system: NCI-H23 lung
# LOX IMVI melanoma = test system: LOX IMVI melanoma
# HOP-62 NSCLC = test system: HOP-62 NSCLC
# OVCAR-3 ovarian = test system: OVCAR-3 ovarian
# SK-MEL-2 melanoma = test system: SK-MEL-2 melanoma
# OVCAR-8 ovarian = test system: OVCAR-8 ovarian
# COLO 205 colon = test system: COLO 205 colon
# SF-539 CNS = test system: SF-539 CNS
# DU-145 prostate = test system: DU-145 prostate
# A549 NSCLC = test system: A549 NSCLC
# M14 melanoma = test system: M14 melanoma
# TK-10 renal = test system: TK-10 renal
# U251 CNS = test system: U251 CNS
# HCT-116 colon = test system: HCT-116 colon
# ACHN renal = test system: ACHN renal
# UO-31 renal = test system: UO-31 renal
# MOLT-4 leukemia = test system: MOLT-4 leukemia
# SNB-75 CNS = test system: SNB-75 CNS
# CAKI-1 renal = test system: CAKI-1 renal
# HT29 colon = test system: HT29 colon
# SNB-19 CNS = test system: SNB-19 CNS
# NCI-H460 lung = test system: NCI-H460 lung
# OVCAR-4 ovarian = test system: OVCAR-4 ovarian
# PC-3 prostate = test system: PC-3 prostate
# BT-549 breast = test system: BT-549 breast
# SN12C renal = test system: SN12C renal
# 786-0 renal = test system: 786-0 renal
# MCF7 breast = test system: MCF7 breast
# MDA-N = test system: MDA-N
# HCC-2998 colon = test system: HCC-2998 colon
# MDA-MB-231 breast = test system: MDA-MB-231 breast
# UACC-62 melanoma = test system: UACC-62 melanoma
# SK-MEL-5 melanoma = test system: SK-MEL-5 melanoma
# SK-MEL-28 melanoma = test system: SK-MEL-28 melanoma
# SK-OV-3 ovarian = test system: SK-OV-3 ovarian
# KM12 colon = test system: KM12 colon
# HL-60(TB) leukemia = test system: HL-60(TB) leukemia
# SF-295 CNS = test system: SF-295 CNS
# IGROV1 ovarian = test system: IGROV1 ovarian
# MALME-3M melanoma = test system: MALME-3M melanoma
# SR leukemia = test system: SR leukemia
# RPMI-8226 leukemia = test system: RPMI-8226 leukemia
# A498 renal = test system: A498 renal
# NCI-H522 lung = test system: NCI-H522 lung
# RXF 393 renal = test system: RXF 393 renal
# CCRF-CEM leukemia = test system: CCRF-CEM leukemia
# K-562 leukemia = test system: K-562 leukemia
smiles,measurement,setting,value
O=c1[nH]c2ccccc2c(O)c1/C=N/C(=S)NCCc1ccccc1,TGI,T-47D breast,> 100 µM
same,TGI,NCI-H226 lung,> 100 µM
same,TGI,EKVX NSCLC,> 100 µM
same,TGI,HOP-92 NSCLC,> 100 µM
same,TGI,NCI/ADR-RES ovarian,> 100 µM
same,TGI,HCT-15 colon,> 100 µM
same,TGI,OVCAR-5 ovarian,> 100 µM
same,TGI,MDA-MB-435,> 100 µM
same,TGI,UACC-257 melanoma,> 100 µM
same,TGI,SW-620 colon,> 100 µM
same,TGI,NCI-H23 lung,> 100 µM
same,TGI,LOX IMVI melanoma,> 100 µM
same,TGI,HOP-62 NSCLC,> 100 µM
same,TGI,OVCAR-3 ovarian,> 100 µM
same,TGI,SK-MEL-2 melanoma,> 100 µM
same,TGI,OVCAR-8 ovarian,> 100 µM
same,TGI,COLO 205 colon,> 100 µM
same,TGI,SF-539 CNS,> 100 µM
same,TGI,DU-145 prostate,> 100 µM
same,TGI,A549 NSCLC,> 100 µM
same,TGI,M14 melanoma,> 100 µM
same,TGI,TK-10 renal,> 100 µM
same,TGI,U251 CNS,> 100 µM
same,TGI,HCT-116 colon,> 100 µM
same,TGI,ACHN renal,> 100 µM
same,TGI,UO-31 renal,> 100 µM
same,TGI,MOLT-4 leukemia,> 100 µM
same,TGI,SNB-75 CNS,> 100 µM
same,TGI,CAKI-1 renal,> 100 µM
same,TGI,HT29 colon,> 100 µM
same,TGI,SNB-19 CNS,> 100 µM
same,TGI,NCI-H460 lung,> 100 µM
same,TGI,OVCAR-4 ovarian,> 100 µM
same,TGI,PC-3 prostate,> 100 µM
same,TGI,BT-549 breast,> 100 µM
same,TGI,SN12C renal,> 100 µM
same,TGI,786-0 renal,> 100 µM
same,TGI,MCF7 breast,> 100 µM
same,TGI,MDA-N,> 100 µM
same,TGI,HCC-2998 colon,> 100 µM
same,TGI,MDA-MB-231 breast,> 100 µM
same,TGI,UACC-62 melanoma,> 100 µM
same,TGI,SK-MEL-5 melanoma,> 100 µM
same,TGI,SK-MEL-28 melanoma,> 100 µM
same,TGI,SK-OV-3 ovarian,> 100 µM
same,TGI,KM12 colon,> 100 µM
same,TGI,HL-60(TB) leukemia,> 100 µM
same,TGI,SF-295 CNS,> 100 µM
same,TGI,IGROV1 ovarian,> 100 µM
N#CC(C#N)N=Nc1ccc(-c2nc3ccccc3s2)cc1,TGI,T-47D breast,8.21 µM
same,TGI,EKVX NSCLC,22.8 µM
same,TGI,HOP-92 NSCLC,4.64 µM
same,TGI,NCI/ADR-RES ovarian,15.2 µM
same,TGI,HCT-15 colon,13.5 µM
same,TGI,OVCAR-5 ovarian,50.5 µM
same,TGI,MDA-MB-435,39.9 µM
same,TGI,UACC-257 melanoma,11.2 µM
same,TGI,SW-620 colon,22.7 µM
same,TGI,NCI-H23 lung,8.72 µM
same,TGI,LOX IMVI melanoma,20.4 µM
same,TGI,SK-MEL-2 melanoma,16.7 µM
same,TGI,OVCAR-8 ovarian,43.8 µM
same,TGI,COLO 205 colon,14 µM
same,TGI,SF-539 CNS,25.8 µM
same,TGI,MALME-3M melanoma,7.99 µM
same,TGI,SR leukemia,10.3 µM
same,TGI,DU-145 prostate,19.6 µM
same,TGI,M14 melanoma,32.1 µM
same,TGI,TK-10 renal,11.3 µM
same,TGI,HCT-116 colon,13.6 µM
same,TGI,ACHN renal,15.2 µM
same,TGI,UO-31 renal,21.8 µM
same,TGI,MOLT-4 leukemia,3.68 µM
same,TGI,SNB-75 CNS,54.8 µM
same,TGI,CAKI-1 renal,20.7 µM
same,TGI,HT29 colon,20.4 µM
same,TGI,OVCAR-4 ovarian,78.6 µM
same,TGI,PC-3 prostate,10.1 µM
same,TGI,BT-549 breast,19.2 µM
same,TGI,SN12C renal,10.8 µM
same,TGI,786-0 renal,22 µM
same,TGI,RPMI-8226 leukemia,3.4 µM
same,TGI,MCF7 breast,14.9 µM
same,TGI,MDA-N,63.1 µM
same,TGI,A498 renal,23.8 µM
same,TGI,SK-MEL-5 melanoma,9.37 µM
same,TGI,NCI-H522 lung,7.8 µM
same,TGI,RXF 393 renal,15.8 µM
same,TGI,SK-MEL-28 melanoma,35.9 µM
same,TGI,IGROV1 ovarian,22.2 µM
COC(=O)C1(C(=O)OC)N=C(C)OC1c1ccoc1 (stereo unspecified),TGI,T-47D breast,> 100 µM
same,TGI,NCI-H226 lung,> 100 µM
same,TGI,EKVX NSCLC,> 100 µM
same,TGI,HOP-92 NSCLC,> 100 µM
same,TGI,NCI/ADR-RES ovarian,> 100 µM
same,TGI,HCT-15 colon,> 100 µM
same,TGI,OVCAR-5 ovarian,> 100 µM
same,TGI,CCRF-CEM leukemia,> 100 µM
same,TGI,MDA-MB-435,> 100 µM
same,TGI,UACC-257 melanoma,> 100 µM
same,TGI,SW-620 colon,> 100 µM
same,TGI,NCI-H23 lung,> 100 µM
same,TGI,LOX IMVI melanoma,> 100 µM
same,TGI,HOP-62 NSCLC,> 100 µM
same,TGI,OVCAR-3 ovarian,> 100 µM
same,TGI,SK-MEL-2 melanoma,> 100 µM
same,TGI,OVCAR-8 ovarian,> 100 µM
same,TGI,COLO 205 colon,> 100 µM
same,TGI,SR leukemia,> 100 µM
same,TGI,DU-145 prostate,> 100 µM
same,TGI,A549 NSCLC,> 100 µM
same,TGI,M14 melanoma,> 100 µM
same,TGI,TK-10 renal,> 100 µM
same,TGI,U251 CNS,> 100 µM
same,TGI,HCT-116 colon,> 100 µM
same,TGI,ACHN renal,> 100 µM
same,TGI,UO-31 renal,> 100 µM
same,TGI,MOLT-4 leukemia,> 100 µM
same,TGI,SNB-75 CNS,> 100 µM
same,TGI,CAKI-1 renal,> 100 µM
same,TGI,K-562 leukemia,> 100 µM
same,TGI,SNB-19 CNS,> 100 µM
same,TGI,NCI-H460 lung,> 100 µM
same,TGI,OVCAR-4 ovarian,> 100 µM
same,TGI,PC-3 prostate,> 100 µM
same,TGI,BT-549 breast,> 100 µM
same,TGI,SN12C renal,> 100 µM
same,TGI,786-0 renal,> 100 µM
same,TGI,RPMI-8226 leukemia,> 100 µM
same,TGI,MCF7 breast,> 100 µM
same,TGI,MDA-N,> 100 µM
same,TGI,HCC-2998 colon,> 100 µM
same,TGI,UACC-62 melanoma,> 100 µM
same,TGI,A498 renal,> 100 µM
same,TGI,SK-MEL-5 melanoma,> 100 µM
same,TGI,RXF 393 renal,> 100 µM
same,TGI,SK-MEL-28 melanoma,> 100 µM
same,TGI,SK-OV-3 ovarian,> 100 µM
same,TGI,KM12 colon,> 100 µM
same,TGI,HL-60(TB) leukemia,> 100 µM
same,TGI,SF-295 CNS,> 100 µM
